No end group written: not given here.
What was measured:
Test in all cases: REVEAL Epitope Discovery System in vitro MHC-peptide binding assay
HLA-A*11:01 = HLA-A*11:01 (Homo sapiens, UniProt P04439, A114D/D185E/E176A/F33Y/L180Q/S129P/T187R); conditions: binding normalized to positive control peptide set at 100%, >50 considered good or high affinity binding
Protocol: (§1) Actual binding affinities for certain HLA class I alleles (A*02:01, A*03:01, A*11:01, and B*08:01) were assessed in vitro for exemplary overlapping 9 amino acid peptide sequences within a portion of the 26 amino acid junction region spanning the CD28 and 4-1BB junction. Specifically, assessment was of a series of overlapping 9-mer peptides derived from the sequence […] (set forth in SEQ ID NO: 7), which contains a portion of the CD28 transmembrane domain and 4-1BB costimulatory domain spanning the junction between the domains (bond joining the two amino acids noted in underline). In addition, a series of overlapping 9-mer peptides of each of a number of different variants of this portion also were assessed, each variant containing a mutation or mutations in this region as described in Example 2.
(§2) The various 9-mer overlapping peptides were synthesized and their purity tested by MALDI-TOF Mass Spectrometry. The synthetic peptides were then incubated with recombinant MHC molecules to assess binding properties using the REVEAL Epitope Discovery System, which is a high-throughput binding assay that measures the degree to which each peptide is able to stabilize a ternary MHC-peptide complex (Prolmmune, Oxford, United Kingdom). Each peptide was separately tested for this ability with respect to each of the HLA class I alleles, normalized to the degree observed for a positive control (known T cell epitope for the relevant allele). The results are reported as a score, in which the binding was normalized to the positive control peptide set at 100%. In this analysis, a score of greater than 50 generally was considered to represent good or high affinity binding.

HLA-B*08:01 = HLA-B*08:01 (Homo sapiens, UniProt P01889, A93T/A95T/D138N/E176V/E187T/K202T/Q94N/R180D/S35A/V36M/Y33D/Y91F); conditions: binding normalized to positive control peptide set at 100%, >50 considered good or high affinity binding
Protocol: as §1, §2

HLA-A*03:01 = HLA-A*03:01 (Homo sapiens, UniProt P04439); conditions: REVEAL score, binding normalized to positive control peptide set at 100%; greater than 50 considered good or high affinity binding
Protocol: as §1, §2

HLA-A*02:01 = HLA-A*02:01 (Homo sapiens, UniProt P04439, D140Y/D185E/D98H/E176V/E277Q/G131W/G231S/I119V/I121R/I166T/I218V/L300P/L318F/N151K/N90K/P208A/P217A/Q86G/Q94H/R138H/R169H/T345S); conditions: binding normalized to positive control peptide set at 100%, greater than 50 considered good or high affinity binding
Protocol: as §1, §2

Row | Molecule | A*11:01 In Vitro Score (HLA-A*11:01) | B*08:01 In Vitro Score (HLA-B*08:01) | A*03:01 In Vitro (HLA-A*03:01) | A*02:01 In Vitro Score (HLA-A*02:01)
1 | IFWVHRGRK | 36.60 | 0.10 | 37.80 | 7.10
2 | IIFWVQRGN | 29.00 | 0.00 | 3.60 | 13.00
3 | CC(C)[C@H](NC(=O)[C@H](Cc1c[nH]c2ccccc12)NC(=O)[C@@H](N)Cc1ccccc1)C(=O)N[C@@H](CCCCN)C(=O)N[C@@H](CCCNC(=N)N)C(=O)NCC(=O)N[C@@H](CC(N)=O)C(=O)N[C@@H](CCCCN)C(=O)N[C@@H](CCCCN)C(=O)O | 7.30 | 0.10 | 3.60 | 8.70
4 | CC(C)C[C@H](NC(=O)[C@H](CCCCN)NC(=O)[C@H](CCCCN)NC(=O)[C@H](CCCNC(=N)N)NC(=O)CNC(=O)[C@H](CCCNC(=N)N)NC(=O)[C@H](C)NC(=O)[C@@H](NC(=O)[C@@H](N)Cc1c[nH]c2ccccc12)C(C)C)C(=O)O | 13.80 | 32.40 | 1.30 | 8.80
5 | CC[C@H](C)[C@H](NC(=O)[C@H](Cc1ccccc1)NC(=O)[C@H](C)N)C(=O)N[C@H](C(=O)N[C@@H](Cc1ccccc1)C(=O)N[C@@H](Cc1c[nH]c2ccccc12)C(=O)N[C@H](C(=O)N[C@@H](CCCNC(=N)N)C(=O)N[C@@H](CCCNC(=N)N)C(=O)O)C(C)C)[C@@H](C)CC | 1.50 | 0.30 | – | 1.40
6 | IFWVQRGRK | 128.50 | 0.00 | 36.70 | 6.10
7 | WVQRGNKKA | 0.80 | 0.70 | 1.20 | 1.90
8 | FIIFWVSRG | 5.10 | 0.40 | 0.10 | 0.20
9 | FWVQRGSKK | 6.80 | 0.00 | 1.90 | 0.80
10 | FWVQRGAKK | 18.30 | 0.00 | 2.70 | 2.20
11 | CC[C@H](C)[C@H](N)C(=O)N[C@H](C(=O)N[C@@H](Cc1ccccc1)C(=O)N[C@@H](Cc1c[nH]c2ccccc12)C(=O)N[C@H](C(=O)N[C@@H](C)C(=O)N[C@@H](CCCNC(=N)N)C(=O)NCC(=O)N[C@@H](CCCNC(=N)N)C(=O)O)C(C)C)[C@@H](C)CC | 70.60 | 0.30 | 18.60 | 9.60
12 | FWVQRGNKK | 5.90 | 0.00 | 1.30 | 3.10
13 | CC[C@H](C)[C@H](N)C(=O)N[C@H](C(=O)N[C@@H](Cc1ccccc1)C(=O)N[C@@H](Cc1c[nH]c2ccccc12)C(=O)N[C@H](C(=O)N[C@@H](CCCCN)C(=O)N[C@@H](CCCNC(=N)N)C(=O)NCC(=O)N[C@@H](CO)C(=O)O)C(C)C)[C@@H](C)CC | 100.00 | 0.40 | 16.20 | 13.60
14 | WVQRGNKKL | 10.70 | 32.00 | 1.50 | 4.30
15 | WVKRGRKKA | 3.10 | 3.10 | 0.90 | 4.50
16 | IIFWVKRGA | 22.60 | 0.90 | 42.90 | 85.90
17 | VAFIIFWVK | 109.20 | 0.30 | 1.50 | 0.70
18 | WVKRGAKKL | 4.60 | 34.10 | 4.10 | 4.70
19 | FIIFWVLRG | 2.40 | 0.20 | 0.10 | 7.20
20 | FWVKRGRKK | 6.50 | 0.00 | 2.20 | 3.50
21 | AFIIFWVSR | 54.00 | 0.30 | 0.30 | 4.50
22 | IFWVQRGSK | 103.30 | 0.00 | 20.30 | 33.50
23 | CC(C)[C@H](NC(=O)[C@@H](N)Cc1c[nH]c2ccccc12)C(=O)N[C@@H](CCC(N)=O)C(=O)N[C@@H](CCCNC(=N)N)C(=O)NCC(=O)N[C@@H](CC(N)=O)C(=O)N[C@@H](CCCCN)C(=O)N[C@@H](CCCCN)C(=O)N[C@@H](CO)C(=O)O | 5.00 | 0.00 | 0.70 | 1.20
24 | VAFIIFWVR | 34.60 | 0.10 | 0.70 | 1.20
25 | CC(C)C[C@H](NC(=O)[C@H](CCCCN)NC(=O)[C@H](CCCCN)NC(=O)[C@H](CO)NC(=O)CNC(=O)[C@H](CCCNC(=N)N)NC(=O)[C@H](CCC(N)=O)NC(=O)[C@@H](NC(=O)[C@@H](N)Cc1c[nH]c2ccccc12)C(C)C)C(=O)O | 5.90 | – | 1.20 | 4.40

Continued, values first:

Row | A*11:01 In Vitro Score (HLA-A*11:01) | B*08:01 In Vitro Score (HLA-B*08:01) | A*03:01 In Vitro (HLA-A*03:01) | A*02:01 In Vitro Score (HLA-A*02:01) | Molecule
26 | 4.80 | 28.50 | 13.10 | 1.40 | WVKRGRKKL
27 | 34.90 | 0.00 | 53.70 | 1.00 | IFWVARGRK
28 | 12.80 | 45.10 | 4.90 | 8.10 | CC(C)C[C@H](NC(=O)[C@H](CCCCN)NC(=O)[C@H](CCCCN)NC(=O)[C@H](CCCNC(=N)N)NC(=O)CNC(=O)[C@H](CCCNC(=N)N)NC(=O)[C@H](CCC(N)=O)NC(=O)[C@@H](NC(=O)[C@@H](N)Cc1c[nH]c2ccccc12)C(C)C)C(=O)O
29 | 5.60 | 19.20 | 3.40 | 1.60 | WVHRGRKKL
30 | 2.80 | 47.60 | 1.40 | 3.90 | WVKRGHKKL
31 | 4.40 | 6.20 | 2.10 | 2.30 | WVSRGRKKL
32 | 39.20 | 0.00 | 39.20 | 1.30 | IFWVSRGRK
33 | 4.10 | 65.90 | 0.90 | 2.40 | WVKRGNKKL
34 | 5.00 | 0.00 | 0.40 | 3.30 | FWVLRGRKK
35 | 5.60 | 0.00 | 3.60 | 1.60 | FWVHRGRKK
36 | 42.10 | 0.90 | 4.30 | 9.30 | CC[C@H](C)[C@H](N)C(=O)N[C@H](C(=O)N[C@@H](Cc1ccccc1)C(=O)N[C@@H](Cc1c[nH]c2ccccc12)C(=O)N[C@H](C(=O)N[C@@H](CCCCN)C(=O)N[C@@H](CCCNC(=N)N)C(=O)NCC(=O)N[C@@H](CC(N)=O)C(=O)O)C(C)C)[C@@H](C)CC
37 | 8.90 | 0.00 | 5.00 | 13.50 | CC(C)[C@H](NC(=O)[C@H](Cc1c[nH]c2ccccc12)NC(=O)[C@@H](N)Cc1ccccc1)C(=O)N[C@@H](C)C(=O)N[C@@H](CCCNC(=N)N)C(=O)NCC(=O)N[C@@H](CCCNC(=N)N)C(=O)N[C@@H](CCCCN)C(=O)N[C@@H](CCCCN)C(=O)O
38 | 1.50 | 0.60 | 0.40 | 16.80 | FIIFWVQRG

Source: patent US20200297760A1, “COMPOSITIONS AND METHODS FOR REDUCING IMMUNE RESPONSES AGAINST CHIMERIC ANTIGEN RECEPTORS” (Juno Therapeutics, Inc., priority 2015, published 2020)
